Measured values as given in patent US20110201603A1, “Novel Acylaminobenzamide Derivatives” (Bayer CropScience AG, priority 2008, published 2011).

Test system: Boophilus microplus
Assay: Boophilus microplus test (injection)
Format: in vivo
Conditions: application rate of 20 μg/animal; injection into adult engorged female ticks; after 7 days
Protocol: Solvent: dimethyl sulfoxide
To produce a suitable preparation of active compound, 10 mg of active compound are dissolved in 0.5 ml solvent, and the concentrate is diluted with solvent to the desired concentration. Five adult engorged female ticks (Boophilus microplus) are injected with compound solution into the abdomen. Ticks are transferred into replica plates and incubated in a climate chamber for a period of time. Egg deposition of fertile eggs is monitored. After 7 days mortality in % is determined. 100% means that all eggs are infertile; 0% means that all eggs are fertile.

CCc1cc(C(n2cc(C(F)(F)F)cn2)(C(F)(F)F)C(F)(F)F)cc(C)c1NC(=O)c1cccc(N)c1 [11-114]
activity (mortality in %; 100% means all eggs are infertile): 80%
